In PMC5128743, “Marine Fungi as Producers of Benzocoumarins, a New Class of Inhibitors of Glycogen-Synthase-Kinase 3β” (Marine Drugs, 2016):
Where two headings read alike, the source gives them in different places.

What was measured:
[1] = tested on: Bacillus subtilis (DSM 347); test: Growth inhibition of Bacillus subtilis; type: cell-based
Method: (§1) The assay is based on the phosphorylation of a peptide by the enzyme with ATP as phosphate donor. ATP, luciferin, and oxygen react to oxyluciferin, which is measured as a luminescence signal. The more the enzyme is inhibited, the stronger the luminescence signals are because of high ATP levels. 20 μL substrate solution (2 μM ATP, 40 μM peptide HSSPHQ-pSer-EDEEE (BIOSYNTAN, Berlin, Germany)) and 10 μL enzyme solution (12 mU GSK-3β (N-terminal His6-tagged recombinant human GSK3β with an H350L mutation, EMD Millipore, Billerica, MA, USA)) were incubated for 60 min at 25 °C. Then 40 μL Kinase-Glo reagent (Kinase-Glo Luminescent Assay Kit, Promega, Darmstadt, Germany) was added. After centrifugation and incubation for 10 min at 25 °C, the luminescence was measured. […] The antimicrobial activities of compounds 1, 2, and 3 against the bacterium Bacillus subtilis (DSM 347) and the human pathogenic yeast Candida albicans (DSM 1386) were determined according to Ohlendorf et al.. The determination of inhibitory activities against Xanthomonas campestris, Septoria tritici, and Propionibacterium acnes, as well as the cytotoxic activity against the cell line […] was carried out as described by Schneemann et al..

[2] = target: T1, GSK-3β (N-terminal His6-tagged recombinant human GSK3β with an H350L mutation) (Homo sapiens, UniProt P49841); test: GSK-3β luminescent (Kinase-Glo) inhibition assay; type: biochemical
T1 construct: His6 (N); purchased EMD Millipore, Billerica, MA, USA
T1 sequence (P49841 whole entry, stated change not applied): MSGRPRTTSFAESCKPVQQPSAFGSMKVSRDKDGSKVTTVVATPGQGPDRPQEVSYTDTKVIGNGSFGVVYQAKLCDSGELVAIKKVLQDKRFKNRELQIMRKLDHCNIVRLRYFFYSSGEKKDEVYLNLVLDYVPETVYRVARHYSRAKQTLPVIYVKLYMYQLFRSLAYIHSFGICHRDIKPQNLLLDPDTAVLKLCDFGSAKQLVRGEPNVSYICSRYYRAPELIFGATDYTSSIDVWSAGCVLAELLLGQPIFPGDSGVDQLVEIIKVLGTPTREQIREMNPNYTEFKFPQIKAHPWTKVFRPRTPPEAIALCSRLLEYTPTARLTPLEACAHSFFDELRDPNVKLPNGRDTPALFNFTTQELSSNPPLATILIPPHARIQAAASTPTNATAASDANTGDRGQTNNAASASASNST
Method: as §1

[3] = tested on: Staphylococcus lentus; test: Growth inhibition of Staphylococcus lentus; type: cell-based; conditions: Mammaliicoccus lentus; test concentration of 100 μM; read-out: inhibition of growth of S. lentus
[4] = tested on: HepG2; test: Cytotoxic activity against cancer cell line HepG2; conditions: concentration not given
Method: as §1

[5] = tested on: HMGCoA (3-hydroxy-3-methylglutaryl coenzyme A reductase); design: method as in PMID 1880066; conditions: cited from earlier work
[6] = DSM347, read-out: inhibition of growth of B. subtilis
[7] = luminescent assay, 2 μM ATP substrate solution, 60 min at 25 °C

IC50 ([2]; luminescent assay, 2 μM ATP substrate solution, 60 min at 25 °C, read-out: IC50 of GSK-3β inhibition) [nM] | SMILES | inhibition at 100 µM [1, 6] [%] | IC50 [2] [nM] | IC50 of GSK-3β inhibition [2, 7] | inhibition at 100 µM [3] [%] | inhibition (cytotoxic effect) of cancer cell line HepG2 [4] | inhibition at 100 µM ([1]; DSM347, test concentration of 100 μM, read-out: inhibition of growth of B. subtilis) [%] | HMGCoA reductase inhibiting activity [5]
 | COc1cc(O)c2c(=O)oc3cc(O)cc(C)c3c2c1 [Compound 3, alternariol-9-methylether] | 82 | 200 ± 20 | sub-μM | 25 | lower than 35% |  | 
350 ± 40 | Cc1cc2cc(O)cc(O)c2c2oc(=O)cc(O)c12 [Compound 1, pannorin] |  |  | sub-μM | 88 | lower than 35% | 54 | inhibiting activity
 | Cc1cc(O)cc2oc(=O)c3c(O)cc(O)cc3c12 [Compound 2, alternariol] | 79 | 130 ± 40 | sub-μM | 66 | lower than 35% |  | 
